In this assay the test system is α-L-rhamnosidase from Penicillium sp. DSM 6826. Kind of assay: Influence of different substances on the activity of the purified α-L-rhamnosidase. In kind it is biochemical. The settings on record: control = 100. The method, then:
p-Nitrophenyl-α-L-rhamnopyranoside is used as the substrate for detecting the α-L-rhamnosidase activity. 10 mg of this substrate are dissolved in 10 ml of ammonium acetate buffer (pH 5.5, 50 mM). 100 μl of culture filtrate or cell lysates are added to 900 μl of this solution and the mixture is then incubated at 40° C. After 0, 3, 6, 9 and 12 minutes, 200 μl are removed and mixed with 800 μl of 200 mM borate buffer, pH 9. The release-of p-nitrophenol is monitored photometrically at 410 nm; naringinase (following Romero et al. Anal. Biochem. 149 566-571 (1985)) was used as the control.
The investigations summarized in the table below were carried out using the purified enzyme.

On to `C[C@@H]1OC(O)[C@H](O)[C@H](O)[C@H]1O` (single isomer, unassigned) [L-Rhamnose, 6-deoxy-L-mannose], for which the “% activity” value (substance at 0.5 M) came to 51%, the “% activity” value (substance at 1.0 M) came to 39.5% and the “% activity” value (substance at 1.5 M) is on record as 26.4%. Take `[Ca+2].[Cl-].[Cl-]` [CaCl2]: the “% activity” value (substance at 20 mM) worked out at 127%. Consider `[Cl-].[Cl-].[Co+2]` [CoCl2], for which the “% activity” value (substance at 2 mM) is reported as 41%. Still for that read-out and setting: the figure for `[Cl-].[Cs+]` [CsCl] is 96%. Regarding `[Cl][Cu][Cl]` [CuCl2], the “% activity” value (substance at 0.5 mM) turned out to be 40%. As to `O=C(O)CN(CCN(CC(=O)O)CC(=O)O)CC(=O)O` [EDTA, reference compound], where the note is “substance at 10 mM”, the “% activity” value is 22%.

Consider `O=C(O)CN(CCOCCOCCN(CC(=O)O)CC(=O)O)CC(=O)O` [EGTA, reference compound], for which, under “substance at 10 mM”, the “% activity” value is given as 60%. As for `O=S(=O)([O-])[O-].[Fe+2]` [FeSO4], under “substance at 0.5 mM”, the “% activity” value is given as 100%. `[Cl-].[K+]` [KCl]: the “% activity” value (substance at 100 mM) is recorded as 69%. Take `O=S(=O)([O-])[O-].[Mg+2]` [MgSO4]: the “% activity” value (substance at 2 mM) is recorded as 106%. On to `[Cl][Mn][Cl]` [MnCl2], for which, under “substance at 2 mM”, the “% activity” value was determined as 27%.

Consider `[Cl-].[Cl-].[Zn+2]` [ZnCl2], for which the “% activity” value (substance at 2 mM) was determined as 65%.

For the origin of these results see patent US5641659A, “α-l-rhamnosidase for obtaining rhamnose, a process for its preparation and its use” (priority 1992, dated 1997).
